Reference: patent US12606508B2, “Cannabis extracts and uses thereof” (priority 2020, dated 2026)
pKi: −log10 of the molar value.

Assays:
[1] = target: T1, human CB2 receptor (Homo sapiens, UniProt P34972); conditions: cited from earlier work
T1 construct: Eurofins Discovery (contract assay)

[2] = tested on: CD-1 mice; assay: Formalin test in mice; assay type: in vivo; conditions: AM251 0.5 mg/kg i.p. or AM630 1 mg/kg i.p., 10 min before Δ^9-THCB 3 mg/kg i.p.
Experimental: Formalin test in mice. Male CD-1 mice 6-8 weeks (Envigo, Italy), were housed under controlled conditions (12 h light/12 h dark cycle; temperature 20-22 C; humidity 55-60%) with chow and tap water available ad libitum. All surgeries and experimental procedures were approved by the Animal Ethics Committee of University of Campania “L. Vanvitelli” (Naples). Animal care was in compliance with Italian (D.L. 116/92) and European Commission (O.J. of E.C. L358/1 18/12/86) regulations on the protection of laboratory animals. All efforts were made to minimize animal suffering and to reduce the number of animals used. All the experiments were performed in a randomized manner by the same operator blind to pharmacological treatments. Mice weighing 28-32 g were used after 1 week-acclimation period and received formalin (1.25% in saline, 30 μL) in the dorsal surface of one side of the hind-paw. Each mouse, randomly assigned to one of the experimental groups (n=5), was placed in a plexiglass cage and allowed to move freely for 15-20 min. A mirror was placed at a 45° angle under the cage to allow full view of the hind-paws. Lifting, favoring, licking, shaking and flinching of the injected paw were recorded as nocifensive behavior.^61 The total time of the nociceptive response was measured every 5 min for 60 minutes and expressed in min (mean±SEM). Mice received vehicle (0.5% DMSO in saline) or different doses of Δ^9-THCB (2, 3 and 5 mg/kg, i.p.) 20 min before formalin injection alone or in combination with AM251 (0.5 mg/kg, i.p.) or AM630 (1 mg/kg, i.p.). The antagonists were administered 10 min before drugs injection.
Statistics for in vivo experiments. Data are represented as means±standard error of the mean (S.E.M). Statistical analysis of the data was performed by analysis of variance two-way ANOVA followed by Bonferroni post hoc or Dunnett's multiple comparison test. All statistical analyses were performed by using GraphPAD software (San Diego, California). Differences were considered significant at p<0.05.

[3] = target: T2, human CB1 receptor (Homo sapiens, UniProt P21554); conditions: literature values used for comparison; read-out: Ki against CB1 receptor reported in the literature; cited from earlier work
T2 construct: Eurofins Discovery (contract assay)
T2 sequence (P21554 whole entry): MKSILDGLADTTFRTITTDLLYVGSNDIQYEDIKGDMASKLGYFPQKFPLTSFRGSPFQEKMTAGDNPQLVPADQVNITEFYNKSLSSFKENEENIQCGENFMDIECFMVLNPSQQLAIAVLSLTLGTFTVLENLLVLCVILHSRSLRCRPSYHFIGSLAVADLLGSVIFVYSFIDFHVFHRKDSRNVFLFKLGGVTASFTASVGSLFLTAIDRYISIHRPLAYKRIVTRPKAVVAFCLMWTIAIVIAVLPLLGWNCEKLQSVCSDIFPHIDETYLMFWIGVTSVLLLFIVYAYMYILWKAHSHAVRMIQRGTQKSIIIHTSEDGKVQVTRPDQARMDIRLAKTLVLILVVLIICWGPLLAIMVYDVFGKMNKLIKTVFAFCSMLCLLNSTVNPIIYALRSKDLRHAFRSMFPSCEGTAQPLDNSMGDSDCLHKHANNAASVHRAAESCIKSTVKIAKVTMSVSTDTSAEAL

T1 sequence (P34972 whole entry): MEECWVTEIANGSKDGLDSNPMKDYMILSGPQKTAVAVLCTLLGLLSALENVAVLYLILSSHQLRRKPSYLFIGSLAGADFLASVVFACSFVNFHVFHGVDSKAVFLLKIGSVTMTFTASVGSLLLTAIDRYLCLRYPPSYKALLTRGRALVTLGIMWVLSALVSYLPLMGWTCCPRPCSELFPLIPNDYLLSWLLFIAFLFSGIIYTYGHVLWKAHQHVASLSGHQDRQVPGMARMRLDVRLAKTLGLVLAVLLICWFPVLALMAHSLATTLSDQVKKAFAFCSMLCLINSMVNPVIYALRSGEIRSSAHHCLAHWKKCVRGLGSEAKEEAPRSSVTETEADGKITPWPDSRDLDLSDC

Row | SMILES | effect of antagonist pre-treatment on Δ^9-THCB analgesia in formalin test [2] | pKi [3] | also measured
1 | C=C(C)[C@@H]1CCC(C)=C[C@H]1c1c(O)cc(CCCCC)cc1O [CBD, cannabidiol] | – | – | affinity to CB2 receptor (in words, literature) [1]: poor affinity
2 | COc1ccc(C(=O)c2c(C)n(CCN3CCOCC3)c3cc(I)ccc23)cc1 [AM630] | prevented the analgesic effects induced by Δ^9-THCB | – | –
3 | CCCc1cc(O)c2c(c1)OC(C)(C)[C@@H]1CCC(C)=C[C@@H]21 [Δ^9-THCV, Δ^9-tetrahydrocannabivarin] | – | 7.12 | –
4 | CC1=CC[C@@H]2[C@@H](C1)c1c(O)cc(C(C)(C)CCCCCCBr)cc1OC2(C)C [AM11542] | – | 9.96 | –
5 | Cc1c(C(=O)NN2CCCCC2)nn(-c2ccc(Cl)cc2Cl)c1-c1ccc(I)cc1 [AM251] | prevented the analgesic effects induced by Δ^9-THCB | – | –
